Data as given in article PMC1073692, “An Unbiased Cell Morphology–Based Screen for New, Biologically Active Small Molecules” (PLoS Biology, 2005).
Where “and” joins values, the source holds several entries; their conditions need not be identical. Identical values can stand only once. Entries after “also recorded” stand apart in the source; their conditions may differ. Like-named read-outs stand apart in the source and are kept apart here.

What was measured:
Fyn = molecular target: T1, Fyn (Homo sapiens, UniProt P06241); assay: Kinase disk assay (32P transfer to peptide), Fyn; format: biochemical
T1 construct: made in house; host or cells: bacteria
Method: (§1) Fyn and p38 kinases were expressed in bacteria and purified as previously described. Protein kinase A and Protein kinase B were obtained commercially (Upstate Cell Signaling Specialties Charlottesville, Virginia, United States). […] Reaction mixtures (27 μl) were spotted onto a phosphocellulose disk and washed with 0.5% H3PO4. The transfer of ^32P was measured by standard scintillation counting. […] When the IC50 value fell between two measured concentrations, it was calculated based on the assumption of an inversely proportional relationship between inhibitor concentration and counts per minute between the two data points.
(§2) IC50 values against Fyn and p38 are given (left), and percentage activity of PKA and PKB in presence of the inhibitors are given (right). Kinase activity was determined using a standardized disk assay based on the P^32 transfer to a synthetic peptide (See Materials and Methods). […] Peptide subrate sequences for each kinase are shown below:
[…] (100 µM) was used as the substrate for Fyn.

p38-α = molecular target: T2, p38-α (Homo sapiens, UniProt Q16539); assay: Kinase disk assay (32P transfer to peptide), p38; format: biochemical; conditions: Table S3; […] 100 µM substrate, 11 nM [γ-32P]ATP
T2 construct: made in house; host or cells: bacteria
Method: as §1, §2
[…] (100 µM) was used as the substrate for p38.

protein kinase A = molecular target: T3, protein kinase A (Homo sapiens, UniProt P17612); assay: Kinase disk assay (32P transfer to peptide), PKA; format: biochemical; conditions: remaining kinase activity
T3 construct: purchased Upstate Cell Signaling Specialties
Method: as §1, §2
bzRRASLG (100 µM) was used as the susbtrate for PKA.

protein kinase B = molecular target: T4, protein kinase B (Homo sapiens, UniProt P31749); assay: Kinase disk assay (32P transfer to peptide), PKB; format: biochemical; conditions: 25 min, read-out: Relative activity @ 1 µM inhibitor PKB
T4 construct: purchased Upstate Cell Signaling Specialties
Method: as §1, §2
bzRPRTSSF (100 µM) was used as the susbtrate for PKB.

A549 cells [1] = assay: PI-stained cell assay, serum-withdrawal-induced apoptosis; format: cell-based, human; conditions: for Enhancement of induction of apoptosis by cell stresses: A549, interferon-γ + Fas ligand, H2O2, interleukin-1β, serum withdrawal, interleukin-1β + serum withdrawal, data not shown; for Protection against serum-withdrawal-induced apoptosis (PI staining): 65 h following serum withdrawal
Text: We chose to focus on signals that induce apoptosis in A549 adenocarcinoma cells because this endpoint is important for many cell-fate decisions, including those relevant to cancer and inflammation. CBR1 has been directly implicated in redox reactions leading to H2O2 generation, a known stimulus for apoptosis. A549 cells were subjected to a wide range of cell stresses previously shown to induce apoptosis: (1) interferon-γ + Fas ligand, (2) H2O2, (3) interleukin-1β, (4) serum withdrawal, or (5) interleukin-1β + serum withdrawal.
(§3) Cell viability was determined by the alamarBlue reagent reduction assay in a 96-well culture plate, measuring the absorbance at 570 and 600 nm spectrophotometrically. The amount of PI-stained cells was estimated by measuring fluorescence following incubation with PI (5 μg/ml). For both experiments, data are shown as the percentages of nontreated control cells.

[2] = test system: A549, DU145, HUVEC, SF268 and SKOV3 cells; assay: Cytometrix cell morphology-based screen; set-up: species or system human; conditions: for Cytometrix phenotype (PCA trajectory): 6 nM to 40 μM; for EC50: Homo sapiens, read-out: Approximate EC50 (distance in PCA space from DMSO controls); for Potency in Cytometrix relative to parent compound (fold lower): linker analog vs parent, data not shown
Method: SKOV3 (ovarian epithelial cancer), A549 (lung epithelial cancer), and SF268 (central nervous system epithelial cancer) were chosen for their broad genetic diversity and obtained from the National Institutes of Health. These human cells were grown and maintained in RMPI medium (Mediatech, Herndon, Virginia, United States) with 5% fetal calf serum (FBS, HyClone, Logan, Utah, United States). DU145 (prostate epithelial cancer) cells ( ATTC, Manassas, Virginia, United States) were maintained in MEM with 5% FBS. HUVEC cells (VEC Technologies, Rensselaer, New York, United States) were maintained in MCDB131 medium (VEC Technologies) with 10% FBS. For the assays 1,000–1,800 trypsinized (Mediatech) cells per well (depending on cell type) were plated in 384-well plates (Corning Costar, Acton, Massachusetts, United States) using a Multidrop (Thermo Labsystems, Beverly, Massachusetts, United States) and incubated for 24 h, the approximate doubling time. Six cell plates were made for each cell line.
Compound stocks were maintained in DMSO. Compound information was stored in ActivityBase (ID Business Solutions, Guildford, United Kingdom). Compounds were serially diluted in 384-well drug plates to achieve eight concentrations diluting 3× in DMSO between wells using a Multimek (Beckman Coulter, Fullerton, California, United States). Wells were reserved on every drug plate for negative and positive controls. Negative-control wells contained DMSO only and the positive-control wells received a titration of paclitaxel, a tubulin stabilizer (Sigma-Aldrich-Fluka, St. Louis, Missouri, United States). […] Small molecules were tested at 40 μM on cells based on the logic that cellular effects on cells at […] concentration are most likely nonspecific and that we would most likely get a full-dose response after eight 3-fold dilutions (6 nM to 40 μM final concentrations).
Compounds were added to cell plates from drug plates. Compound mixed with medium was added to the cells to achieve a 0.4% DMSO concentration on prepared cell plates using a PlateTrak (CCS Packard, Torrance, California, United States). Treated cells were incubated for another 24 h, the compound exposure time.
Cells were stained for visualization of the nuclei, Golgi apparatus, and microtubules. Cells were fixed with 4% formaldehyde (Polysciences, Warrington, Pennsylvania, United States) for 1 h; washed in TBS (Teknova, Half Moon Bay, California, United States); blocked in 0.01% Triton X-100 (ICN Biomedicals, Irvine, California, United States) and 1% BSA in TBS (Teknova) and then left to incubate for 1 h; stained with 0.01% Triton X-100, 0.1% BSA, 5 μg/ml Hoechst 33342 (Molecular Probes, Eugene, Oregon, United States), 5 μg/ml FITC-Lectin Lens Culinaris (Sigma-Aldrich-Fluka), and 3 μg/ml Rhodamine Red–labeled monoclonal antibody DM1α (courtesy of Tim Stearns) for 1 h; and then washed in TBS. All of these steps were performed with a PlateTrak using an ELx405 microplate washer (Bio-Tek Instruments, Winooski, Vermont, United States). This was done in triplicate for each cell line.
Cells were imaged on an inverted Axiovert 100M epifluorescent microscope (Carl Zeiss, Oberkochen, Germany) with a 5× objective and a Xenon lamp (Sutter Instruments, Novato, California, United States). A 5× magnification was chosen (rather than 40×) primarily as a function of the need to acquire a large number of individual cells in order to gather statistically relevant data on relatively rare subpopulations. The number of cells in a randomly acquired 40× image is not sufficient to make meaningful statistical measurements across many cells. Metamorph (Universal Imaging, Downingtown, Pennsylvania, United States) was used to control the motorized x, y, z stage (Prior Scientific, Rockland, Massachusetts, United States) that moved the plate to each well, autofocused, and took three successive fluorescent images with an Orca 100 camera (Hamamatsu, Hamamatsu City, Japan). […]

human CBR1 = molecular target: T5, human CBR1 (Homo sapiens, UniProt P16152); assay: CBR1 assay (NADPH-dependent reduction of menadione, spectrophotometric)
T5 sequence (P16152 1-277): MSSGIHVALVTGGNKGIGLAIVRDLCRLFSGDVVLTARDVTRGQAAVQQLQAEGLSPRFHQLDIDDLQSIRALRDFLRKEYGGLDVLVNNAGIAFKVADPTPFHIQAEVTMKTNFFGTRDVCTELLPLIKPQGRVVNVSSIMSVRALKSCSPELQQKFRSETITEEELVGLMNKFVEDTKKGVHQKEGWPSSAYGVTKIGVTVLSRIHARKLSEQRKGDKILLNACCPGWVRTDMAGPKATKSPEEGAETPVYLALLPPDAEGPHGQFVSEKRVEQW
Method: CBR1 activity was determined spectrophotometrically at 25 °C. The standard assay mixture consisted of 50 mM sodium phosphate (pH 6.8), 200 μM NADPH, and 200 μM menadione in a total volume of 1 ml. Compounds were dissolved in DMSO as 100× stock solutions. Reactions were initiated by the addition of enzyme, and initial rates were determined by monitoring the disappearance of NADPH at 340 nM. Controls without substrates or enzyme were routinely included.

A549 cells [3] = assay: Cell viability assay (alamarBlue reduction), daunorubicin combination; format: cell-based, human; conditions: for Cytotoxicity on A549 cells when used alone: 8 μM; for Enhancement of daunorubicin-mediated A549-cell killing: 8 μM compound with 440 nM daunorubicin
Text: To test this hypothesis, we measured the ability of hydroxy-PP-Me and PP-L to block CBR1-mediated metabolism of daunorubicin in A549 cells using cell killing as a measure of the cellular status of daunorubicin metabolism. […] Hydroxy-PP-Me induced a 25% enhancement of daunorubicin-mediated A549-cell killing consistent with its ability to inhibit CBR1-mediated daunorubicin metabolism. […] Although the observed 25% enhancement of daunorubicin-mediated cell killing is modest, the hydroxy-PP-Me dose dependence (Figure 5B) of this effect is further evidence that it is CBR1 mediated rather than a general toxic response.
A549 cells were purchased from ATCC and cultured in the F-12K medium with 10% of FBS. Cells were maintained at 37 °C in an atmosphere of 5% CO2. Adherant cells were released for passaging using an isotonic Trypsin solution (0.25% Trypsin, 0.02% Versene). Rabbit anti-human CBR1 antibody was obtained from Dr. Tsuchida. The CBR expression vector, pET-11aCR, was obtained from Dr. Wermuth.
as §3

[4] = read-out: IC50 against Fyn (Figure 3)
[5] = 1 µM inhibitor, remaining kinase activity
[6] = IC50 against CBR1, 200 μM NADPH, 200 μM menadione, pH 6.8, 25 °C

T1 sequence (P06241 whole entry, species assumed): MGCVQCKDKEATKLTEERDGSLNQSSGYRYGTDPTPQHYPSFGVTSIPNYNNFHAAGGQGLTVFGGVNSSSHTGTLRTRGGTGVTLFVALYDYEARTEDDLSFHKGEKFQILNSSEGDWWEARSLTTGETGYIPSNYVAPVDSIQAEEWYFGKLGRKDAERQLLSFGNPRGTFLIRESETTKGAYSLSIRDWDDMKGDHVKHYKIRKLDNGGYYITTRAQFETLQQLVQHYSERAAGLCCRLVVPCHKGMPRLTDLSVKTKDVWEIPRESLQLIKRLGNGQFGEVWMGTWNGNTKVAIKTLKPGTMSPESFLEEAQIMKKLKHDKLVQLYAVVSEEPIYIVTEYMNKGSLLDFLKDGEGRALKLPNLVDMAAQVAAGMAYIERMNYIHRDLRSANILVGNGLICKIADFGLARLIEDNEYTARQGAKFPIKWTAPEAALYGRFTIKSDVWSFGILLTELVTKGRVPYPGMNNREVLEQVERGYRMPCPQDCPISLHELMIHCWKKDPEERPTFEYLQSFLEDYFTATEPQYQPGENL
T4 sequence (P31749 whole entry, species assumed): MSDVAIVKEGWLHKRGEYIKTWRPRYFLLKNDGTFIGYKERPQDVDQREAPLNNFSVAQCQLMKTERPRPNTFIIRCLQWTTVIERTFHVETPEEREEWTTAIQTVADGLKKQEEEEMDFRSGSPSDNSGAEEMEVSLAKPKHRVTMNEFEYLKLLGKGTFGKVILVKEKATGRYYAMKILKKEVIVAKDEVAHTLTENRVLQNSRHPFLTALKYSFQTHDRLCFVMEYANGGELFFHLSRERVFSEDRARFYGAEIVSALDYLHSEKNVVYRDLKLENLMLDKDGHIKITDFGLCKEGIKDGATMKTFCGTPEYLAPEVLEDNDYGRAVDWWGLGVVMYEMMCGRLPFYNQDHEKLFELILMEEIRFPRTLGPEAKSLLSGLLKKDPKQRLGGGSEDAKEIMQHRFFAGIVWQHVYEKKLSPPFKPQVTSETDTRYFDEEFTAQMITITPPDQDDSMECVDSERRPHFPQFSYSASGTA
T2 sequence (Q16539 whole entry): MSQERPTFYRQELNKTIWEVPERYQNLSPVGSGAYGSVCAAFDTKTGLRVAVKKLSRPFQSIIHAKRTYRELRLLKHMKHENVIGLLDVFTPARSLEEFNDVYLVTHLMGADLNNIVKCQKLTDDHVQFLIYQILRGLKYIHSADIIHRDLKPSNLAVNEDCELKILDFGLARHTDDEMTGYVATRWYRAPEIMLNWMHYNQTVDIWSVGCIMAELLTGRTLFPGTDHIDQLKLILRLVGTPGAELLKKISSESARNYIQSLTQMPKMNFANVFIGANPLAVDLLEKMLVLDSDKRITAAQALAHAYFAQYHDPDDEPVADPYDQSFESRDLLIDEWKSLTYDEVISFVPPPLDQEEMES

Compound: CC(C)(C)n1nc(-c2cccc(O)c2)c2c(N)ncnc21 [hydroxy-PP, 3-(1-tert-butyl-4-amino-1H-pyrazolo[3,4-d]pyrimidin-3-yl)phenol]
- IC50 (Fyn; [4]): 5 nM
- IC50 (p38-α): 17000 nM
- Relative activity @ 1 µM inhibitor PKA (protein kinase A): 110%
- activity at 1 µM (protein kinase B; [5]): 91%
- Enhancement of induction of apoptosis by cell stresses (A549 cells [1]): no enhancement
- Protection against serum-withdrawal-induced apoptosis (PI staining) (A549 cells [1]; A549 cells): able to block A549-cell apoptosis
- Cytometrix phenotype (PCA trajectory) ([2]; 24 h, five cell types): distinct from the phenotypes induced by kinase inhibitors and the microtubule depolymerization inhibitors
- EC50 ([2]; 24 h treatment, five cell types, concentration of Figure 1D, called approximately the EC50): ~0.4 µM
- IC50 (human CBR1; [6]): 788 nM
- IC50 (human CBR1; IC50 against CBR1, re-screen of the screening collection, data not shown): < 1000 nM

Compound: CCOCCn1nc(-c2cccc(O)c2)c2c(N)ncnc21 [hydroxy-PP-L]
- Protection against serum-withdrawal-induced apoptosis (PI staining) (A549 cells [1]; A549 cells): protects A549 cells against serum-withdrawal-induced apoptosis, although to a lesser extent than hydroxy-PP-Me
- Protection against serum-withdrawal-induced apoptosis (PI staining) (A549 cells [1]; A549 cells, listed as Hydroxy-PP-L): dose-dependent decrease in PI staining
- Potency in Cytometrix relative to parent compound (fold lower) [2]: approximately 5 fold

Compound: CC(C)(C)n1nc(-c2ccc(Cl)cc2)c2c(N)ncnc21 [PP2, 1-tert-butyl-3-(4-chlorophenyl)-1H-pyrazolo[3,4-d]pyrimidin-4-amine, reference compound]
- activity at 1 µM (protein kinase B): 103%
- EC50 ([2]; 24 h): ~129 µM

Compound: COc1cccc2c1C(=O)c1c(O)c3c(c(O)c1C2=O)C[C@@](O)(C(C)=O)C[C@@H]3O[C@H]1C[C@H](N)[C@H](O)[C@H](C)O1 [daunorubicin, reference compound]
- IC50 (A549 cells [3]; Homo sapiens, A549, read-out: Approximate IC50 for cell killing as a single agent): ~440 nM

Compound: CCOCCn1nc(-c2ccccc2)c2c(N)ncnc21 [PP-L]
- Cytotoxicity on A549 cells when used alone (A549 cells [3]): minimal cytotoxicity
- Enhancement of daunorubicin-mediated A549-cell killing (A549 cells [3]): no enhancement of cell killing
- Protection against serum-withdrawal-induced apoptosis (PI staining) (A549 cells [1]; A549 cells): does not
- Potency in Cytometrix relative to parent compound (fold lower) [2]: approximately 5 fold

Compound: CC(=O)O[C@H]1C(=O)[C@@]2(C)[C@H]([C@H](OC(=O)c3ccccc3)[C@]3(O)C[C@H](OC(=O)[C@H](O)[C@@H](NC(=O)c4ccccc4)c4ccccc4)C(C)=C1C3(C)C)[C@]1(OC(C)=O)CO[C@@H]1C[C@@H]2O [paclitaxel, reference compound]
- Cytometrix phenotype (PCA trajectory) ([2]; 24 h, five cell types): pronounced and highly reproducible trajectory

Compound: CNc1ncnc2c1c(-c1cccc(O)c1)cn2C(C)C [hydroxy-PP-Me, 3-(7-isopropyl-4-(methylamino)-7H-pyrrolo[2,3-d]pyrimidin-5yl)phenol]
- IC50 (Fyn; Table S3, LEEIYGEFKKK 100 µM substrate, 11 nM [γ-32P]ATP, read-out: IC50 (nM) Fyn): > 50000 nM
- IC50 (Fyn; [4]): 70000 nM and > 70000 nM
- IC50 (p38-α): > 50000 nM
- Relative activity @ 1 µM inhibitor PKA (protein kinase A): 106%
- activity at 1 µM (protein kinase B; [5]): 95%
- Cytotoxicity on A549 cells when used alone (A549 cells [3]): minimal cytotoxicity
- Enhancement of daunorubicin-mediated A549-cell killing (A549 cells [3]): 25%
- Cell viability with concomitant daunorubicin treatment (A549 cells [3]; 1–8 μM compound plus daunorubicin): dose-dependent decrease in cell viability
- Enhancement of induction of apoptosis by cell stresses (A549 cells [1]): no enhancement
- Apoptosis induced by serum withdrawal blocked (A549 cells [1]; A549 cells): more than 90%
- Protection against serum-withdrawal-induced apoptosis (PI staining) (A549 cells [1]; A549 cells): dose-dependent decrease in PI staining; also recorded: almost completely protected against apoptosis
- IC50 (human CBR1; [6]): 759 nM

Compound: COC(=O)[C@@]1(O)C[C@H]2O[C@]1(C)n1c3ccccc3c3c4c(c5c6ccccc6n2c5c31)C(=O)NC4 [K252a, reference compound]
- Cytometrix phenotype (PCA trajectory) ([2]; 24 h, five cell types): dose-dependent morphological changes in A549, DU145, HUVEC, and SF268 cells but not SKOV3 cells
